Numbers after ± are expanded uncertainties.
Assay: mn = molality of the nth substance listed, in mol/kg
Conditions: 100 kPa, Liquid; for speed of sound: Frequency=3 MHz, Sing-around technique in a fixed-path interferometer; for mass density: Vibrating tube method

O=C([O-])CC(O)(CC(=O)[O-])C(=O)[O-].[Li+].[Li+].[Li+] [trilithium citrate] + O
Conditions | mass density, 288.15 K [kg/m3] | mass density, 298.15 K [kg/m3] | mass density, 308.15 K [kg/m3] | mass density, 318.15 K [kg/m3] | speed of sound, 288.15 K [m/s] | speed of sound, 298.15 K [m/s] | speed of sound, 308.15 K [m/s] | speed of sound, 318.15 K [m/s]
m1 = 0.2 | 1027.57 ± 0.36 | 1025.15 ± 0.36 | 1021.94 ± 0.35 | 1017.98 ± 0.35 | 1509.4 ± 4.2 | 1536 ± 4.2 | 1556.2 ± 4.2 | 1570.5 ± 4.2
m1 = 0.4 | 1052.95 ± 0.37 | 1050.23 ± 0.37 | 1046.82 ± 0.36 | 1042.77 ± 0.36 | 1548.6 ± 4.2 | 1572.7 ± 4.2 | 1590.4 ± 4.2 | 1602.2 ± 4.2
m1 = 0.6 | 1078.48 ± 0.38 | 1075.51 ± 0.38 | 1071.94 ± 0.37 | 1067.78 ± 0.37 | 1589.2 ± 4.2 | 1610.3 ± 4.2 | 1626 ± 4.2 | 1636.1 ± 4.2
